Measured values reported in patent US20020099241A1, “Alpha-sulfin-and alpha-sulfonamino acid amides” (priority 1998, published 2002).

Key:
Phytophthora [1] = experiment: D-2: Action against Phytophthora on tomato plants (residual-protective and systemic); assay type: in vivo; conditions: spray or soil watering 0.02% active ingredient, evaluated 4-5 days after infection, protective/systemic not distinguished
Method: D-2: Action Against Phytophthora on Tomato Plants
(§1) a) Residual-Protective Action
(§2) After a cultivation period of 3 weeks, tomato plants are sprayed with a spray mixture (0.02% active ingredient) prepared from a wettable powder formulation of the test compound. After 48 hours, the treated plants are infected with a sporangia suspension of the fungus. Fungus infestation is evaluated after incubation of the infected plants for 5 days at 90-100% relative humidity and 20° C.
as §2, with “watered” for “sprayed”, “ingredient based on the volume of the soil)” for “ingredient)”, “compound. […]” for “compound.”, “96” for “48”, “4” for “5”

Phytophthora [2] = experiment: D-3: Action against Phytophthora on potato plants (residual-protective and systemic); assay type: in vivo; conditions: potato plants (Bintje variety), spray or soil watering 0.02% active ingredient, evaluated 4 days after infection; protective/systemic not distinguished
Method: D-3: Action Against Phytophthora on Potato Plants
as §1
(§3) 2-3 week old potato plants (Bintje variety) are sprayed with a spray mixture (0.02% active ingredient) prepared from a wettable powder formulation of the test compound. After 48 hours, the treated plants are infected with a sporangia suspension of the fungus. Fungus infestation is evaluated after incubation of the infected plants for 4 days at 90-100% relative humidity and 20° C.
as §3, with “watered” for “sprayed”, “ingredient based on the volume of the soil)” for “ingredient)”, “compound. […]” for “compound.”, “C. Fungal infestation is effectively controlled with compounds of Tables 1 to 37.” for “C.”

Plasmopara viticola = experiment: D-1: Action against Plasmopara viticola on vines (residual-protective and residual-curative); assay type: in vivo; conditions: vine seedlings, spray mixture 0.02% active ingredient, evaluated 6 days after infection; protective/curative not distinguished
Method: D-1: Action Against Plasmopara viticola on Vines a) Residual-Protective Action
Vine seedlings are sprayed at the 4- to 5-leaf stage with a spray mixture (0.02% active ingredient) prepared from a wettable powder formulation of the test compound. After 24 hours, the treated plants are infected with a sporangia suspension of the fungus. Fungus infestation is evaluated after incubation for 6 days at 95-100% relative humidity and 20° C. […]
b) Residual-Curative Action
Vine seedlings are infected at the 4- to 5-leaf stage with a sporangia suspension of the fungus. After incubation for 24 hours in a humidity chamber at 95-100% relative humidity and 20° C., the infected plants are dried and sprayed with a spray mixture (0.02% active ingredient) prepared from a wettable powder formulation of the test compound. After the spray coating has dried, the treated plants are placed in the humidity chamber again. Fungus infestation is evaluated 6 days after infection.

Compound | Fungus infestation (Phytophthora [1]) | Fungus infestation (Phytophthora [2]) | melting point [°C] | Fungus infestation (Plasmopara viticola)
CCS(=O)(=O)N[C@H](C(=O)NCCc1ccc(OCC(C)c2ccc(F)cc2)c(OC)c1)C(C)C (stereo partly drawn) [Compound A1.01, (S)-2-Ethanesulfonylamino-N-(2-{4-[2-(4-fluoro-phenyl)-propoxy]-3-methoxy-phenyl}-ethyl)-3-methyl-butyramide] | completely inhibit fungal infestation | completely inhibit fungal infestation | 107 to 111 | completely inhibit fungal infestation
CCS(=O)(=O)N[C@H](C(=O)NCCc1ccc(OCCCc2cccc(C(F)(F)F)c2)c(OC)c1)C(C)C | – | – | 119 to 120 | –
COc1cc(CCNC(=O)[C@@H](NS(C)(=O)=O)C(C)C)ccc1OCCCc1ccc(Cl)cc1 | – | – | 128 to 130 | –
